Measurements taken from ChEMBL document CHEMBL1159211, “Antifungal evaluation of pseudolaric acid B, a major constituent of Pseudolarix kaempferi” (J Nat Prod, 1995).
≈ marks a conversion by molar mass, not a printed value. Calls of active or inactive are those of the source. The calls are words filed in the database; no cut-off is given here.

Key:
[1] = tested on: Candida albicans; assay: Antimicrobial activity against Candida albicans at 1 mg/mL by agar-well diffusion assay; format: functional; conditions: Candida albicans; read-out: IZ
[2] = tested on: Aspergillus flavus; assay: Antimicrobial activity against Aspergillus flavus at 1 mg/mL by agar-well diffusion assay; format: functional
[3] = tested on: Aspergillus fumigatus; assay: Antimicrobial activity against Aspergillus fumigatus at 1 mg/mL by agar-well diffusion assay; format: functional
[4] = tested on: Cryptococcus neoformans; assay: Antimicrobial activity against Cryptococcus neoformans at 1 mg/mL by agar-well diffusion assay; format: functional
[5] = tested on: Trichophyton mentagrophytes; assay: Antimicrobial activity against Trichophyton mentagrophytes at 1 mg/mL by agar-well diffusion assay; format: functional
[6] = tested on: Nannizzia gypsea; assay: Antimicrobial activity against Microsporum gypseum at 1 mg/mL by agar-well diffusion assay; format: functional
[7] = tested on: Saccharomyces cerevisiae; assay: Antimicrobial activity against Saccharomyces cerevisiae at 1 mg/mL by agar-well diffusion assay; format: functional, organism-based
[8] = tested on: Escherichia coli; assay: Antimicrobial activity against Escherichia coli at 1 mg/mL by agar-well diffusion assay; format: functional, organism-based
[9] = tested on: Staphylococcus aureus; assay: Antimicrobial activity against Staphylococcus aureus at 1 mg/mL by agar-well diffusion assay; format: functional, organism-based
[10] = tested on: Bacillus subtilis; assay: Antimicrobial activity against Bacillus subtilis at 1 mg/mL by agar-well diffusion assay; format: functional, organism-based
[11] = tested on: Pseudomonas aeruginosa; assay: Antimicrobial activity against Pseudomonas aeruginosa at 1 mg/mL by agar-well diffusion assay; format: functional, organism-based
[12] = tested on: Mycobacterium intracellulare; assay: Antimicrobial activity against Mycobacterium intracellular at 1 mg/mL by agar-well diffusion assay; format: functional; conditions: for zone of inhibition at 1000 µg/mL: read-out: IZ
[13] = tested on: Candida albicans; assay: Antifungal activity against Candida albicans B311 assessed decrease in number of viable cells at 1 to 10 ug/ml after 24 hrs by time-to kill curve assay; format: functional, organism-based
[14] = tested on: Candida albicans; assay: Antifungal activity against Candida albicans B311 infected in CD1 mouse assessed as prolongation of survival time at 10 mg/kg, iv administered 1, 3 and 5 days postinfection; format: functional, organism-based; parameters: dose 10 mg/kg
[15] = tested on: Candida albicans; assay: Antifungal activity against Candida albicans B311 infected in CD1 mouse assessed as prolongation of survival time at 40 mg/kg, ip administered 7 hrs postinfection and continued for 7 or 14 consecutive days; format: functional, organism-based; parameters: dose 40 mg/kg
[16] = tested on: Candida albicans; assay: Antifungal activity against Candida albicans B311 at 1 mg/mL by agar-well diffusion assay; format: functional; conditions: Candida albicans, B311; read-out: IZ
[17] = tested on: Candida albicans; assay: Antifungal activity against Candida albicans ATCC 10231 at 1 mg/mL by agar-well diffusion assay; format: functional; conditions: Candida albicans, ATCC 10231; read-out: IZ
[18] = tested on: Starmerella magnoliae; assay: Antifungal activity against Candida magnoliae ATCC 12573 at 1 mg/mL by agar-well diffusion assay; format: functional; conditions: ATCC 12573; read-out: IZ
[19] = tested on: Candida parapsilosis; assay: Antifungal activity against Candida parapsilosis ATCC 20224 at 1 mg/mL by agar-well diffusion assay; format: functional; conditions: Lodderomyces parapsilosis, ATCC 20224; read-out: IZ
[20] = tested on: Candida albicans; assay: Antifungal activity against Candida stellatoidea SA-I at 1 mg/mL by agar-well diffusion assay; format: functional; conditions: Candida albicans; read-out: IZ
[21] = tested on: Candida tropicalis; assay: Antifungal activity against Candida tropicalis ATCC 20326 at 1 mg/mL by agar-well diffusion assay; format: functional; conditions: Candida tropicalis, ATCC 20326; read-out: IZ
[22] = tested on: Candida tropicalis; assay: Antifungal activity against Candida tropicalis ATCC 20021 at 1 mg/mL by agar-well diffusion assay; format: functional; conditions: Candida tropicalis, ATCC 20021; read-out: IZ
[23] = tested on: Candida tropicalis; assay: Antifungal activity against Candida tropicalis LM 64 at 1 mg/mL by agar-well diffusion assay; format: functional; conditions: Candida tropicalis; read-out: IZ
[24] = tested on: Yarrowia deformans; assay: Antifungal activity against Torulopsis petrophilum ATCC 20225 at 1 mg/mL by agar-well diffusion assay; format: functional; conditions: Yarrowia deformans, ATCC 20225; read-out: IZ
[25] = tested on: Torula; assay: Antifungal activity against Torula cremoris NRRL 7495 at 1 mg/mL by agar-well diffusion assay; format: functional; conditions: Torula, NRRL 7495; read-out: IZ
[26] = tested on: Candida albicans; assay: Antifungal activity against Candida albicans B311 by twofold serial broth dilution method; format: functional
[27] = tested on: Candida albicans; assay: Antifungal activity against Candida albicans ATCC 10231 by twofold serial broth dilution method; format: functional
[28] = tested on: Candida parapsilosis; assay: Antifungal activity against Candida parapsilosis ATCC 20224 by twofold serial broth dilution method; format: functional; conditions: Lodderomyces parapsilosis
[29] = tested on: Candida albicans; assay: Antifungal activity against Candida stellatoidea SA-I by twofold serial broth dilution method; format: functional
[30] = tested on: Candida tropicalis; assay: Antifungal activity against Candida tropicalis ATCC 20326 by twofold serial broth dilution method; format: functional
[31] = tested on: Candida tropicalis; assay: Antifungal activity against Candida tropicalis ATCC 20021 by twofold serial broth dilution method; format: functional
[32] = tested on: Candida tropicalis; assay: Antifungal activity against Candida tropicalis LM 64 by twofold serial broth dilution method; format: functional
[33] = tested on: Yarrowia deformans; assay: Antifungal activity against Torulopsis petrophilum ATCC 20225 by twofold serial broth dilution method; format: functional
[34] = tested on: Torula; assay: Antifungal activity against Torula cremoris NRRL 7495 by twofold serial broth dilution method; format: functional
[35] = tested on: Candida albicans; assay: Antifungal activity against Candida albicans NIH B311 infected in mouse assessed as reduction in number of recovered colony-forming units assessed per mg of kidney at 1 mg/kg, ip administered 7 and 24 hrs after infection measured 16 hrs after final injection by tenfold serial dilution method relative to control; format: functional; parameters: scale not given: the % may be the effect or the level left; conditions: route intraperitoneal

| Structure (SMILES) | zone of inhibition at 1000 µg/mL [1] [mm] | Activity [2] | Activity [3] | Activity [4] | Activity [6] | Activity [7] | Activity [8] | Activity [9] | Activity [10] | Activity [11] | zone of inhibition at 1000 µg/mL [12] [mm] | also measured |
| --- | --- | --- | --- | --- | --- | --- | --- | --- | --- | --- | --- | --- |
| COC(=O)C1=CC[C@@]23CC[C@@H]([C@@](C)(/C=C/C=C(\C)C(=O)OC)OC2=O)[C@@]3(OC(C)=O)CC1 | < 1 | inactive | inactive | inactive | inactive | inactive | inactive | inactive | inactive | inactive | 1 | Activity [5]: inactive |
| COC(=O)C1=CC[C@@]23CC[C@@H]([C@@](C)(/C=C/C=C(\C)C(=O)O)OC2=O)[C@@]3(OC(C)=O)CC1 |  | inactive |  | inactive |  | inactive | inactive | inactive | inactive | inactive |  | Activity [12]: inactive; Activity [13]: Active; Activity [14]: Active; Activity [15]: inactive |
| C[C@@H]1[C@H](O)[C@@H](C)/C=C/C=C/C=C/C=C/C=C/C=C/C=C/[C@H](O[C@@H]2O[C@H](C)[C@@H](O)[C@H](N)[C@@H]2O)C[C@@H]2O[C@](O)(C[C@@H](O)C[C@@H](O)[C@H](O)CC[C@@H](O)C[C@@H](O)CC(=O)O[C@H]1C)C[C@H](O)[C@H]2C(=O)O [AMPHOTERICIN B] |  |  |  |  |  |  |  |  |  |  |  | zone of inhibition at 1000 µg/mL [16]: 7 mm; zone of inhibition at 1000 µg/mL [17]: 7 mm; zone of inhibition at 1000 µg/mL [18]: 7 mm; zone of inhibition at 1000 µg/mL [19]: 3 mm; zone of inhibition at 1000 µg/mL [20]: 7 mm; zone of inhibition at 1000 µg/mL [21]: 7 mm; zone of inhibition at 1000 µg/mL [22]: 7 mm; zone of inhibition at 1000 µg/mL [23]: 7 mm; zone of inhibition at 1000 µg/mL [24]: 7 mm; zone of inhibition at 1000 µg/mL [25]: 7 mm; MIC [26]: 1.56 mg/L (≈ 1.69 µM); MIC [27]: 3.12 mg/L (≈ 3.38 µM); MIC [28]: 1.56 mg/L (≈ 1.69 µM); MIC [29]: 3.12 mg/L (≈ 3.38 µM); MIC [30]: 1.56 mg/L (≈ 1.69 µM); MIC [31]: 3.12 mg/L (≈ 3.38 µM); MIC [32]: 1.56 mg/L (≈ 1.69 µM); MIC [33]: 0.2 mg/L (≈ 0.216 µM); MIC [34]: 3.12 mg/L (≈ 3.38 µM); Activity [35]: 99.82% |
| C/C(=C\C=C\[C@@]1(C)OC(=O)[C@]23CC=C(C(=O)O)CC[C@]2(O)[C@H]1CC3)C(=O)O [DEMETHOXYDEACETOXYPSEUDOLARIC ACID B] | < 1 | inactive | inactive | inactive | inactive | inactive | inactive | inactive | inactive | inactive | 1 | zone of inhibition at 1000 µg/mL ([5]; Trichophyton mentagrophytes, read-out: IZ): 3 mm |
